The source of these data is ChEMBL document CHEMBL1152794, “Synthesis and biological evaluation of a small molecule library of 3rd generation multidrug resistance modulators” (Bioorg Med Chem, 2009).

ATP-dependent translocase ABCB1, sequence (P08183 whole entry): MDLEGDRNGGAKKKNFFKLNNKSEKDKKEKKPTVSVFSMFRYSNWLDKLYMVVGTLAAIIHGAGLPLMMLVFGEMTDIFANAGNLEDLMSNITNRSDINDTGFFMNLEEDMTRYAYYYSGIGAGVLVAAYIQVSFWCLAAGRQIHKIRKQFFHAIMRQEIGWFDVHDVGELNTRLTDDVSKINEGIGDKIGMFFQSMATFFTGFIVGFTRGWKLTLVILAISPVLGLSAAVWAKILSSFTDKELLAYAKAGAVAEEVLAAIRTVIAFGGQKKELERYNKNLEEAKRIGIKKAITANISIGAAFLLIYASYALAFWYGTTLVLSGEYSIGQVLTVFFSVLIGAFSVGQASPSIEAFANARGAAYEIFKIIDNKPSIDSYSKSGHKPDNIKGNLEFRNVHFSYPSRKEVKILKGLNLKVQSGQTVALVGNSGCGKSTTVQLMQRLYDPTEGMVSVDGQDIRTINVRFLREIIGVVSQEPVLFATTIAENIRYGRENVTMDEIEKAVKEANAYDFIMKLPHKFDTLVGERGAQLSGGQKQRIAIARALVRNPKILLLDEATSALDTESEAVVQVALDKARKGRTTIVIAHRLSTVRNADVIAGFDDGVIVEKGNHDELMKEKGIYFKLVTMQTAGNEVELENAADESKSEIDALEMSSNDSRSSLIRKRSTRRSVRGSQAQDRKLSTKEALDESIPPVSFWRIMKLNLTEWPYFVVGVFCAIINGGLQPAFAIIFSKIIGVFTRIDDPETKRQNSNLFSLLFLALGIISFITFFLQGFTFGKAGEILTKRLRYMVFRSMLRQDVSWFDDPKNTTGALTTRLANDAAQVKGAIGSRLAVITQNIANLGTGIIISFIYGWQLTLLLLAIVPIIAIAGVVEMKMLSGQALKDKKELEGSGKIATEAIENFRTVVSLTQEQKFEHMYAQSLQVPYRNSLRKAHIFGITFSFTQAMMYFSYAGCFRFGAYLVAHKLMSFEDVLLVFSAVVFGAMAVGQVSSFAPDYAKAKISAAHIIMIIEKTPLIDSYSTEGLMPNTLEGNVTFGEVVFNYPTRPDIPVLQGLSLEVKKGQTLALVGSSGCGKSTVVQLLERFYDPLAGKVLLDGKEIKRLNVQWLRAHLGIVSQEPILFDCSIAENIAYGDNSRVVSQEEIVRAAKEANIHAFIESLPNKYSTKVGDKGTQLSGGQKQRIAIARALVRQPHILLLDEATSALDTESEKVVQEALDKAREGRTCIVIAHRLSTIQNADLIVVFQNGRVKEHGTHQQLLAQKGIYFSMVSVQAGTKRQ

This experiment concerns the target ATP-dependent translocase ABCB1 (Homo sapiens, UniProt P08183). Description: Inhibition of P-glycoprotein-mediated multidrug resistance in adriamycin-resistant human A2780/ADR cells by calcein AM assay. In kind it is cell-based.
Turning to `COc1cc2c(cc1OC)CN(CCc1ccc(NC(=O)Nc3ccccc3[N+](=O)[O-])cc1)CC2`, the IC50 is 0.33 µM.

For `COc1cc2c(cc1OC)CN(CCc1ccc(NC(=O)c3cnc4ccccc4c3)cc1)CC2`, the 50% inhibitory concentration (IC50) is 0.57 µM.

Turning to `COc1cc2c(cc1OC)CN(CCc1ccc(NC(=O)c3cccc(Br)c3)cc1)CC2`, the IC50 was 1.8 µM.

For `Nc1ccc(C(=O)Nc2ccc(CCN3CCc4ccccc4C3)cc2)cc1`, the IC50 was 12 µM.

`COc1cc2c(cc1OC)CN(CCc1ccc(NC(=O)COc3ccccc3)cc1)CC2`: the IC50 is 3.1 µM.

For `COc1cc2c(cc1OC)CN(CCc1ccc(NC(=O)Nc3ccc(N)cc3)cc1)CC2`, the IC50 was 31 µM.

Regarding `COc1cc2c(cc1OC)CN(CCc1ccc(NC(=O)c3ccc4c(c3)OCO4)cc1)CC2`, the IC50 was 2.1 µM.

With `COc1cc2c(cc1OC)CN(CCc1ccc(NC(=O)c3ccc4ccccc4n3)cc1)CC2`, the IC50 is 0.85 µM.

As for `COc1cc2c(cc1OC)CN(CCc1ccc(NC(=O)c3ccc4ncccc4c3)cc1)CC2`, the IC50 was 0.65 µM.

Consider `COc1cc2c(cc1OC)CN(CCc1ccc(NC(=O)c3ccccc3[N+](=O)[O-])cc1)CC2`, for which the IC50 is 5.4 µM.

As to `COc1cc2c(cc1OC)CN(CCc1ccc(NC(=O)/C=C/c3ccc(Cl)cc3)cc1)CC2`, the IC50 was 0.67 µM.

In the case of `COc1cc2c(cc1OC)CN(CCc1ccc(NC(=O)COc3ccccc3N)cc1)CC2`, the IC50 is 3.4 µM.

Consider `COc1cc2c(cc1OC)CN(CCc1ccc(NC(=O)c3cc(OC)c(OC)cc3NC(=O)c3cnc4ccccc4c3)cc1)CC2`, for which the IC50 was 0.078 µM.

As to `COc1cc2c(cc1OC)CN(CCc1ccc(NC(=O)/C=C/c3ccccc3)cc1)CC2`, the IC50 was 1.4 µM.

`COc1cc2c(cc1OC)CN(CCc1ccc(NC(=O)Nc3cccc(N)c3)cc1)CC2`: the IC50 is 14 µM.

As for `COc1cc(/C=C/C(=O)Nc2ccc(CCN3CCc4cc(OC)c(OC)cc4C3)cc2)c([N+](=O)[O-])cc1OC`, the IC50 was 1.5 µM.

`O=C(Nc1ccc(CCN2CCc3ccccc3C2)cc1)c1ccc([N+](=O)[O-])cc1`: the IC50 is 5.6 µM.

As to `COc1cc2c(cc1OC)CN(CCc1ccc(NC(=O)c3cnc4ccccc4n3)cc1)CC2`, the 50% inhibitory concentration (IC50) is 0.47 µM.

In the case of `COc1cc2c(cc1OC)CN(CCc1ccc(NC(=O)c3ccccc3Br)cc1)CC2`, the concentration for half-maximal inhibition (IC50) is 3.3 µM.

On to `COc1cc2c(cc1OC)CN(CCc1ccc(NC(=O)c3ccc4ccccc4c3)cc1)CC2`, for which the IC50 is 0.63 µM.

Regarding `COc1cc2c(cc1OC)CN(CCc1ccc(NC(=O)c3ccc([N+](=O)[O-])cc3)cc1)CC2`, the IC50 was 1.4 µM.

As to `COc1cc2c(cc1OC)CN(CCc1ccc(NC(=O)Nc3ccc([N+](=O)[O-])cc3)cc1)CC2`, the IC50 is 1.5 µM.

As to `O=C(Nc1ccc(CCN2CCc3ccccc3C2)cc1)c1ccccc1[N+](=O)[O-]`, the IC50 is 14 µM.

For the molecule `COc1cc2c(cc1OC)CN(CCc1ccc(NC(=O)c3ccccc3)cc1)CC2`, the IC50 was 4.1 µM.

Regarding `COc1cc2c(cc1OC)CN(CCc1ccc(NC(=O)c3ccccc3N)cc1)CC2`, the IC50 was 8.5 µM.

`COc1cc2c(cc1OC)CN(CCc1ccc(NC(=O)/C=C/c3ccccc3[N+](=O)[O-])cc1)CC2`: the IC50 is 1.1 µM.

As to `COc1cc2c(cc1OC)CN(CCc1ccc(NC(=O)c3ccnc4ccccc34)cc1)CC2`, the half-inhibitory concentration (IC50) is 4.7 µM.

For `COc1cc2c(cc1OC)CN(CCc1ccc(NC(=O)Nc3ccccc3N)cc1)CC2`, the IC50 was 21 µM.

In the case of `COc1cc2c(cc1OC)CN(CCc1ccc(NC(=O)Nc3cccc([N+](=O)[O-])c3)cc1)CC2`, the IC50 was 0.67 µM.

In the case of `Nc1ccccc1NC(=O)Nc1ccc(CCN2CCc3ccccc3C2)cc1`, the IC50 was 19 µM.

In the case of `COc1cc2c(cc1OC)CN(CCc1ccc(NC(=O)COc3ccccc3[N+](=O)[O-])cc1)CC2`, the IC50 is 0.22 µM.

Turning to `COc1cc2c(cc1OC)CN(CCc1ccc(NC(=O)c3ccc(N)cc3)cc1)CC2`, the IC50 was 4.4 µM.

For `O=C(Nc1ccc(CCN2CCc3ccccc3C2)cc1)Nc1ccccc1[N+](=O)[O-]`, the half-inhibitory concentration (IC50) is 0.77 µM.

Take `COc1cc2c(cc1OC)CN(CCc1ccc(NC(=O)c3cccnc3)cc1)CC2`: the IC50 was 4.8 µM.
